Measured values taken from EP4653017A1, “ANTIBODY-DRUG CONJUGATE AND USE THEREOF” (Tyligand Bioscience (Shanghai) Limited, priority 2023, dated 2024).
pIC50: −log10 of the molar value. Counter-ions that a name gives are not always drawn.

Assays:
[1] = system: human gastric cancer NCI-N87 cells; experiment: Inhibition of NCI-N87 cell proliferation (CTG assay); format: cell-based
Procedure: NCI-N87 cells (Cell Bank of Chinese Academy of Sciences, Cat. No. #TCHu130) were cultured at 37°C, 5% CO2, 95% humidity in RPMI 1640 + 10% FBS (ExCell Bio, Cat. No. #FND500), the cells in logarithmic growth phase were harvested and counted, and cell viability was measured using Countstar automated cell counter based on classical trypan blue staining principle to ensure that the cell viability was above 90%. The cell concentration was adjusted, 135 µL of cell suspension was added into 96 well clear flat bottom black wall plate (Corning, Cat. No. #3904), 2000/well, and the cells was incubated in 96 well plate at 37°C and 5% CO2.
(§1) The cells in the 96 well plates that had been dosed were incubated at 37°C, 5% CO2 for 5 days before performing CTG assay. the plate was equilibrated to room temperature for 30 min and CTG Reagent (CellTiter-Glo® Luminescent Cell Viability Assay (Promega, Cat. No. #G7573) was melt, 50 µL of CTG Solution was added to each well, and shaked on an orbital shaker for 2 min to lyse the cells. The plate was left at room temperature for 10 min to stabilize the cold light signal and the cold light value was read (EnVision® Multifunctional Plate Reader, PerkinElmer#2105). [formula]
GraphPad Prism software was used to analyze the data, and Dose-response-inhibition equation was used to fit the data to obtain the dose-response curve from which IC50 value was calculated. […]

FaDu = experiment: Inhibition of tumor cell line proliferation (Table 3), FaDu; format: cell-based; settings: Human pharyngeal squamous carcinoma cell
A375 = experiment: Inhibition of tumor cell line proliferation (Table 3), A375; format: cell-based; settings: A-375; A375, Human melanoma cells
[2] = system: human ovarian cancer SK-OV-3; experiment: SK-OV-3 subcutaneous xenograft model, Example 7 (ADC-1, ADC-2); format: in vivo, BALB/c Nude mice; settings: 0.1 mg/kg; for Tumor growth inhibition (TGI) / Rate of complete tumor regression (TV = 0 mm^3): Day 21; for Rate of complete tumor regression (TV = 0 mm^3): 5 mice
Procedure: 0.1 mL (1×10^7) of human ovarian cancer SK-OV-3 cells (purchased from ATCC, Cat#HTB-77) (PBS: matrigel volume ratio of 1:1) was subcutaneously inoculated into the right posterior back of each mouse (BALB/c Nude mice, 6-8 weeks old, female, Jiangsu GemPharmatech Co., Ltd.). When the mean tumor volume reached approximately 150 mm^3, the mice were randomly divided into 9 experimental groups, with 5 mice in each group. […] Group 9 was received intratumoral injection of CDN-3 0.1 mg/kg on Days 0, 4, and 7 of the study for a total of 3 drug doses (see Table 4 for animal grouping). The vehicle was a PBS buffer. Tumor volume and body weight were measured twice weekly during the experimental period, and data was recorded. Tumor volume was calculated according to the formula in Example 3.

[3] = system: lymphoma Raji-hClaudin 18.2 cells; experiment: Inhibition of Raji-hClaudin 18.2 cell proliferation (CTG assay); format: cell-based
Procedure: Raji-hClaudin 18.2 cells (provided by Elpiscience) were cultured at 37°C, 5% CO2 and 95% humidity in RPMI 1640 + 10% FBS (ExCell Bio, Cat. No. #FND500) + 10 ug/mL Blasticidin (Beyotime, Cat. No. #ST-018), the cells in logarithmic growth phase were harvested and counted, and cell viability was measured using Countstar automated cell counter based on classical trypan blue staining principle to ensure that the cell viability was above 90%. The cell concentration was adjusted, 135 µL of cell suspension was added into 96 well clear flat bottom black wall plate (Corning, Cat. No. #3904), 10000/well, and the cells were incubated in 96 well plate at 37°C and 5% CO2.
as §1, with “assay. The” for “assay. the”, “read (EnVision ®” for “read (EnVision®”, “[formula] […]” for “[formula]”

Nc1nc2c(ncn2[C@@H]2O[C@@H]3CO[P@@](=O)(S)O[C@H]4[C@H](F)[C@H](n5cnc6c(N)nc(Cl)nc65)O[C@@H]4CO[P@@](=O)(S)O[C@@H]2[C@@H]3O)c(=O)[nH]1 [CDN-3, (2',3')-cyclo-(Rp,Rp)-[2'-O-thiophosphodiester-guanosine]-[3'-O-thiophosphodiester-2-chloro-2'-deoxy-2'-fluoro-beta-adenosine]diammonium salt]
inhibitory effects on NCI-N87 cell proliferation (in words) [1]: strong inhibitory effects | pIC50 ([1]; Homo sapiens, 120 h, NCI-N87, 5 days incubation, top concentration 600 nM): 6.68 | pIC50 (FaDu): 6.30 | pIC50 (A375): 6.69 | Tumor Volume (mm^3, Day 21) ([2]; i.t., day 0, 4, 7): 540 ± 47 mm^3 | Tumor growth inhibition (TGI) ([2]; i.t., day 0, 4, 7): 39% | Rate of complete tumor regression (TV = 0 mm^3) ([2]; i.t., day 0, 4, 7): 0% (0/5) | Tumor Volume (mm^3, Day 21) ([2]; i.v., day0): 723 ± 140 mm^3 | Tumor growth inhibition (TGI) ([2]; i.v., day0): 10% | Rate of complete tumor regression (TV = 0 mm^3) ([2]; i.v., day0): 0% (0/5) | inhibition effects on Raji-hClaudin 18.2 cell proliferation (in words) [3]: strong inhibition effects | pIC50 ([3]; 120 h, Raji-hClaudin 18.2, 5 days incubation, top concentration 600 nM): 6.88
